Measurements reported in patent US8329755B2, “Methods for treating retroviral infections” (Roche Palo Alto LLC, priority 2004, dated 2012).

| melting point | Compound |
| --- | --- |
| 212.9 to 214.4 °C | Cc1cc(CC(=O)Nc2ccc(S(N)(=O)=O)cc2Cl)cc(Oc2cc(C#N)ccc2Cl)c1 [Compound I-148, 2-[3-(2-Chloro-5-cyano-phenoxy)-5-methyl-phenyl]-N-(2-chloro-4-sulfamoyl-phenyl)-acetamide] |
| 189.3 to 192.3 °C | CCc1ccc(CC(=O)Nc2ccccc2)cc1Oc1cc(C#N)cc(C#N)c1Cl [Compound I-208, 2-[3-(2-Chloro-3,5-dicyano-phenoxy)-4-ethyl-phenyl]-N-phenyl-acetamide] |
| 121 to 123.5 °C | O=C(Cc1ccc(Cl)c(C(=O)c2cc(Cl)ccc2Cl)c1)Nc1ccccc1Cl [Compound I-248, 2-[4-Chloro-3-(2,5-dichloro-benzoyl)-phenyl]-N-(2-chloro-phenyl)-acetamide] |
| 134.7 to 135.5 °C | Cc1cc(CC(=O)Nc2ccccc2Cl)cc(C(=O)c2ccc(Cl)cc2)c1 [Compound I-258, 2-[3-(4-Chloro-benzoyl)-5-methyl-phenyl]-N-(2-chloro-phenyl)-acetamide] |
| 204.1 to 206.7 °C | CC(C)c1ccc(CC(=O)Nc2ccc(S(N)(=O)=O)cc2)cc1Oc1cc(Cl)ccc1Br [Compound I-26, 2-[3-(2-Bromo-5-chloro-phenoxy)-4-isopropyl-phenyl]-N-(4-sulfamoyl-phenyl)-acetamide] |
| 129.5 to 132.8 °C | Cc1ccc(CC(=O)Nc2ccnn2C)cc1Oc1cc(Cl)cc(C#N)c1 [Compound I-227, 2-[3-(3-Chloro-5-cyano-phenoxy)-4-methyl-phenyl]-N-(2-methyl-2H-pyrazol-3-yl)-acetamide] |
| 156.2 to 158.2 °C | Cc1cc(S(N)(=O)=O)ccc1NC(=O)Cc1ccc(Cl)c(Oc2cc(C#N)cc(C#CCN(C)C)c2)c1F [Compound I-187, 2-{4-Chloro-3-[3-cyano-5-(3-dimethylamino-prop-1-ynyl)-phenoxy]-2-fluoro-phenyl}-N-(2-methyl-4-sulfamoyl-phenyl)-acetamide] |
| 211 to 213.1 °C | Cc1cc(CC(=O)Nc2ccc(S(N)(=O)=O)cc2)cc(C(=O)c2cccc(Cl)c2)c1 [Compound I-261, 2-[3-(3-Chloro-benzoyl)-5-methyl-phenyl]-N-(4-sulfamoyl-phenyl)-acetamide] |
| 199.1 to 200 °C | CNS(=O)(=O)c1ccc(NC(=O)Cc2ccc(Cl)c(Oc3cc(Cl)cc(C#N)c3)c2F)c(Cl)c1 [Compound I-168, 2-[4-Chloro-3-(3-chloro-5-cyano-phenoxy)-2-fluoro-phenyl]-N-(2-chloro-4-methylsulfamoyl-phenyl)-acetamide] |
| 143.4 to 144 °C | N#Cc1cc(Cl)cc(Oc2c(Cl)ccc(CC(=O)Nc3ccc(S(=O)(=O)NC(=O)CCC(=O)O)cc3Cl)c2F)c1 [Compound I-188, 4-(3-Chloro-4-{2-[4-chloro-3-(3-chloro-5-cyano-phenoxy)-2-fluoro-phenyl]-acetylamino}-benzenesulfonylamino)-4-oxo-butyric acid] |
| 218 to 219 °C | N#Cc1cc(C#N)cc(Oc2cc(CC(=O)Nc3ccc(S(N)(=O)=O)cc3)ccc2Cl)c1 [Compound I-2, 2-[4-Chloro-3-(3,5-dicyano-phenoxy)-phenyl]-N-(4-sulfamoyl-phenyl)-acetamide] |
| 165.8 to 168.1 °C | Cc1ccc(CC(=O)Nc2ccc(S(N)(=O)=O)cc2)cc1Oc1cc(F)cc(C#N)c1 [Compound I-11, 2-[3-(3-Cyano-5-fluoro-phenoxy)-4-methyl-phenyl]-N-(4-sulfamoyl-phenyl)-acetamide] |
| 194 to 194.9 °C | Cc1ccc(CC(=O)Nc2ccc(S(N)(=O)=O)cc2Cl)cc1Oc1cc(Cl)cc(C#N)c1 [Compound I-123, 2-[3-(3-Chloro-5-cyano-phenoxy)-4-methyl-phenyl]-N-(2-chloro-4-sulfamoyl-phenyl)-acetamide] |
| 198 to 202 °C | N#Cc1cc(Oc2cc(CC(=O)Nc3ccc(S(N)(=O)=O)cc3Cl)ccc2Cl)cc(C(F)(F)F)c1 [Compound I-90, 2-[4-Chloro-3-(3-cyano-5-trifluoromethyl-phenoxy)-phenyl]-N-(2-chloro-4-sulfamoyl-phenyl)-acetamide] |
| 155.5 to 155.8 °C | CCc1ccc(CC(=O)Nc2ccccc2Cl)cc1Oc1cc(Br)cc(Br)c1Cl [Compound I-38, N-(2-Chloro-phenyl)-2-[3-(3,5-dibromo-2-chloro-phenoxy)-4-ethyl-phenyl]-acetamide] |
| 146.6 to 147.2 °C | CCc1ccc(CC(=O)Nc2ccccc2Cl)cc1Oc1cc(Br)cc(F)c1Cl [Compound I-41, 2-[3-(5-Bromo-2-chloro-3-fluoro-phenoxy)-4-ethyl-phenyl]-N-(2-chloro-phenyl)-acetamide] |
| 213.2 to 219.6 °C | CCc1ccc(CC(=O)Nc2ccc(S(N)(=O)=O)cc2C)cc1Oc1cc(Cl)cc(Br)c1Cl [Compound I-36, 2-[3-(3-Bromo-2,5-dichloro-phenoxy)-4-ethyl-phenyl]-N-(2-methyl-4-sulfamoyl-phenyl)-acetamide] |
| 116.9 to 118 °C | COC(=O)Cc1ccc(NC(=O)Cc2ccc(C)c(Oc3cc(Cl)cc(C#N)c3)c2)c(Cl)c1 [Compound I-235, (3-Chloro-4-{2-[3-(3-chloro-5-cyano-phenoxy)-4-methyl-phenyl]-acetylamino}-phenyl)-acetic acid methyl ester] |
| 184 to 184.8 °C | Cc1cc(N(C)S(C)(=O)=O)ccc1NC(=O)Cc1ccc(C)c(Oc2cc(Cl)cc(C#N)c2)c1 [Compound I-238, 2-[3-(3-Chloro-5-cyano-phenoxy)-4-methyl-phenyl]-N-[4-(methanesulfonyl-methyl-amino)-2-methyl-phenyl]-acetamide] |
| 224.3 to 228.1 °C | Cc1cc(S(N)(=O)=O)ccc1NC(=O)Cc1ccc(C)c(C(=O)c2cc(C#N)ccc2C)c1 [Compound I-265, 2-[3-(5-Cyano-2-methyl-benzoyl)-4-methyl-phenyl]-N-(2-methyl-4-sulfamoyl-phenyl)-acetamide] |
